Reference: PMC8213057, “Targeting ALK2: An Open Science Approach to Developing Therapeutics for the Treatment of Diffuse Intrinsic Pontine Glioma” (Journal of Medicinal Chemistry, 2020)

Legend:
ITK = target: T1, ITK (Homo sapiens, UniProt Q08881); conditions: 1 μM; Run 1, Run 2
T1 sequence (Q08881 1-620): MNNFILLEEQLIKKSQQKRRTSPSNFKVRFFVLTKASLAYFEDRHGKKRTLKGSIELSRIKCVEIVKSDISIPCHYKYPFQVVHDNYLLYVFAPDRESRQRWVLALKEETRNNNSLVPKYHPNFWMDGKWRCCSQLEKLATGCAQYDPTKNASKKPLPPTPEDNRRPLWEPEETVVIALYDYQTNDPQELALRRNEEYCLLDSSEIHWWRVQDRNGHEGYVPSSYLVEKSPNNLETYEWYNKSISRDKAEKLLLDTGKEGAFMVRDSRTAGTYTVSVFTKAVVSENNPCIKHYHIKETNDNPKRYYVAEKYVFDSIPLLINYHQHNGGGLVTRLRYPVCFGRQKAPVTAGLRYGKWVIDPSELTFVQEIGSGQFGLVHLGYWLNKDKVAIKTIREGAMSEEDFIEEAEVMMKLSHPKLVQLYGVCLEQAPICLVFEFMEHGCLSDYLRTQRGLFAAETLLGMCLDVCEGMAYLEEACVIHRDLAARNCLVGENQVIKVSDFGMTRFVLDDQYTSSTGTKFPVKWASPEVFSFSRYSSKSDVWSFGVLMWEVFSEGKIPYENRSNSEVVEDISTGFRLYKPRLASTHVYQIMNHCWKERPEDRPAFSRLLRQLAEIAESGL

PAK4 = PAK4 (Homo sapiens, UniProt O96013); conditions: 1 μM; Run 1, Run 2
Sequence of PAK4 (O96013 whole entry): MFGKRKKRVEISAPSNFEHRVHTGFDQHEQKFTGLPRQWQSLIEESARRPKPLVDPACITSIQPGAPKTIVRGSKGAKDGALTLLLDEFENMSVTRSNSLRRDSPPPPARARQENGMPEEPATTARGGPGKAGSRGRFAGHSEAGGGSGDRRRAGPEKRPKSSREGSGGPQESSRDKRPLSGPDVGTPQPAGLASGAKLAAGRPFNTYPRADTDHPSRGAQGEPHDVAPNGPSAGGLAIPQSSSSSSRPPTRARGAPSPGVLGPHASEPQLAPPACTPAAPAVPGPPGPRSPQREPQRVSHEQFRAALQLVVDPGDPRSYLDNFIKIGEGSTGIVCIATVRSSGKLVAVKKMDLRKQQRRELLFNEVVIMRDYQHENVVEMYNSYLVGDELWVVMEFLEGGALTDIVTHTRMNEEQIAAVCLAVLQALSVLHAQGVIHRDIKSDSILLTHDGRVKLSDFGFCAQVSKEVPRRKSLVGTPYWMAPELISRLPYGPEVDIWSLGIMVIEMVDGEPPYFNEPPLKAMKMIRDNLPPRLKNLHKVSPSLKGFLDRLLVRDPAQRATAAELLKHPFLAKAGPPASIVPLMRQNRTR

PKN3/PRK3 = PKN3/PRK3 (Homo sapiens, UniProt Q6P5Z2); test: biochemical; conditions: read-out: % enzyme activity, 1 μM; Run 1, Run 2
Sequence of PKN3/PRK3 (Q6P5Z2 whole entry): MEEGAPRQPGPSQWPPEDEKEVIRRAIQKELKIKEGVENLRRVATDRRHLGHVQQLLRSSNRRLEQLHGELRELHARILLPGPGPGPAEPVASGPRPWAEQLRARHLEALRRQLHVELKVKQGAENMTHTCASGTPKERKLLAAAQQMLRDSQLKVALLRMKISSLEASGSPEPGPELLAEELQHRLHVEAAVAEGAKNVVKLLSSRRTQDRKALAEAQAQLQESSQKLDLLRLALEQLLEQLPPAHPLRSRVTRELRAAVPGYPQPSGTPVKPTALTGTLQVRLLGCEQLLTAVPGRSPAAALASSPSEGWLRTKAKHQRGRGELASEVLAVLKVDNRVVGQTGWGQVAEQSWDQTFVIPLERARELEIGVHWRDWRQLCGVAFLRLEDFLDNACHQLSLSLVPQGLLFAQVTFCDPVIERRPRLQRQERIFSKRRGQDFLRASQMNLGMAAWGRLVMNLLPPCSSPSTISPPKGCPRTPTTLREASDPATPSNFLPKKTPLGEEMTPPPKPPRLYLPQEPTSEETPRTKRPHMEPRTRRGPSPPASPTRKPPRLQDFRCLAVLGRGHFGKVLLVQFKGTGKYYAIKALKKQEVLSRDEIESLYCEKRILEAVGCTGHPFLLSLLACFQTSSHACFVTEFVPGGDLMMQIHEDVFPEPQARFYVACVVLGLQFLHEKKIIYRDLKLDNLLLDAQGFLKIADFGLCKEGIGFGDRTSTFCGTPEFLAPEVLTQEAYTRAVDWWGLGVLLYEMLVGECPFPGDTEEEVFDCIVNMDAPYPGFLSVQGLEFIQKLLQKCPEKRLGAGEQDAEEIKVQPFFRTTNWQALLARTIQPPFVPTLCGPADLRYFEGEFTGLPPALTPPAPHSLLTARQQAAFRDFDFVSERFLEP

CYP2C9 = target: T2, CYP2C9 (Homo sapiens, UniProt P11712); test: CYP inhibition assay; format: in vitro ADME; conditions: human liver microsomes
T2 construct: tissue Corning 452117; host or cells: pooled human liver microsomes (UltraPool HLM 150, mixed gender)
T2 sequence (P11712 whole entry): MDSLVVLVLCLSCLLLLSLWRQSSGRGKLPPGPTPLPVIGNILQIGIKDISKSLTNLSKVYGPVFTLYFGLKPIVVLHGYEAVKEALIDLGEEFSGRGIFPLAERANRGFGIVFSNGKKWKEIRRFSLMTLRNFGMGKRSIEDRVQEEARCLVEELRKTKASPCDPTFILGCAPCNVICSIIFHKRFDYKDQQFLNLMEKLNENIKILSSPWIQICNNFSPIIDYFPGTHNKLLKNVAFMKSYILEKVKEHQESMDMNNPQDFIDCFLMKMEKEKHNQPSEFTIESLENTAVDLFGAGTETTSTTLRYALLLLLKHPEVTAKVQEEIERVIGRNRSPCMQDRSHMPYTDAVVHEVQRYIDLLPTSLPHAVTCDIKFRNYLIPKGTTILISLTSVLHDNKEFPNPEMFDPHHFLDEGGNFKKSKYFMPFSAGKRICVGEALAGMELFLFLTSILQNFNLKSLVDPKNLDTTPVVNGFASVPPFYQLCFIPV

JAK1 = JAK1 (Homo sapiens, UniProt P23458); conditions: 1 μM; Run 1, Run 2
PLK4/SAK = target: T3, PLK4/SAK (Homo sapiens, UniProt O00444); test: biochemical; conditions: read-out: % enzyme activity, 1 μM; Run 1, Run 2
T3 sequence (O00444 1-970): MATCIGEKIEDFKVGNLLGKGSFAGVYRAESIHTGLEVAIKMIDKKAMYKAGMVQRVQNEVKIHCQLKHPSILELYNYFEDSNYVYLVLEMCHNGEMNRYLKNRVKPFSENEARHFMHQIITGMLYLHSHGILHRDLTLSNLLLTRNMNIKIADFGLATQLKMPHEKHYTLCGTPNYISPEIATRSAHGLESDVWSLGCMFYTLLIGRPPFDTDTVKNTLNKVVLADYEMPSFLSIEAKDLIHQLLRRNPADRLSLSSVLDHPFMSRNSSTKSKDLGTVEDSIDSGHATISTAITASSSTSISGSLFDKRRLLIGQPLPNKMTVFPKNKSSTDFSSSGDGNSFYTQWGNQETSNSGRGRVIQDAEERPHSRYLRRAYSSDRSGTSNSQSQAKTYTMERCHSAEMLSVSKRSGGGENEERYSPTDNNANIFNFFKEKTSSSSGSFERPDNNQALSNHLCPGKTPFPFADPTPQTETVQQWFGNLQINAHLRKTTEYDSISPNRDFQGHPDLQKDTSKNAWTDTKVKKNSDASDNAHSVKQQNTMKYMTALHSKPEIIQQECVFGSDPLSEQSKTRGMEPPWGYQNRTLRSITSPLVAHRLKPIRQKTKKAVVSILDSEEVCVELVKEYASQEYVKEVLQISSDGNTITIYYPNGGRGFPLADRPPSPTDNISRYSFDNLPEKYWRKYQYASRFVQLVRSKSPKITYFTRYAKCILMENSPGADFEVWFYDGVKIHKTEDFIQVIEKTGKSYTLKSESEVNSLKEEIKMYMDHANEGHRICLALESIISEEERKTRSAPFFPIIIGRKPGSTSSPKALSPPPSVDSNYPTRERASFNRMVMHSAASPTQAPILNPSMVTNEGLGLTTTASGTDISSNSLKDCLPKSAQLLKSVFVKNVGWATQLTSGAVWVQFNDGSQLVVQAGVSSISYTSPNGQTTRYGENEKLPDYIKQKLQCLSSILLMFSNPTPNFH

ROS/ROS1 = ROS/ROS1 (Homo sapiens, UniProt P08922); test: biochemical; conditions: read-out: % enzyme activity, 1 μM; Run 1, Run 2
Sequence of ROS/ROS1 (P08922 28-2347): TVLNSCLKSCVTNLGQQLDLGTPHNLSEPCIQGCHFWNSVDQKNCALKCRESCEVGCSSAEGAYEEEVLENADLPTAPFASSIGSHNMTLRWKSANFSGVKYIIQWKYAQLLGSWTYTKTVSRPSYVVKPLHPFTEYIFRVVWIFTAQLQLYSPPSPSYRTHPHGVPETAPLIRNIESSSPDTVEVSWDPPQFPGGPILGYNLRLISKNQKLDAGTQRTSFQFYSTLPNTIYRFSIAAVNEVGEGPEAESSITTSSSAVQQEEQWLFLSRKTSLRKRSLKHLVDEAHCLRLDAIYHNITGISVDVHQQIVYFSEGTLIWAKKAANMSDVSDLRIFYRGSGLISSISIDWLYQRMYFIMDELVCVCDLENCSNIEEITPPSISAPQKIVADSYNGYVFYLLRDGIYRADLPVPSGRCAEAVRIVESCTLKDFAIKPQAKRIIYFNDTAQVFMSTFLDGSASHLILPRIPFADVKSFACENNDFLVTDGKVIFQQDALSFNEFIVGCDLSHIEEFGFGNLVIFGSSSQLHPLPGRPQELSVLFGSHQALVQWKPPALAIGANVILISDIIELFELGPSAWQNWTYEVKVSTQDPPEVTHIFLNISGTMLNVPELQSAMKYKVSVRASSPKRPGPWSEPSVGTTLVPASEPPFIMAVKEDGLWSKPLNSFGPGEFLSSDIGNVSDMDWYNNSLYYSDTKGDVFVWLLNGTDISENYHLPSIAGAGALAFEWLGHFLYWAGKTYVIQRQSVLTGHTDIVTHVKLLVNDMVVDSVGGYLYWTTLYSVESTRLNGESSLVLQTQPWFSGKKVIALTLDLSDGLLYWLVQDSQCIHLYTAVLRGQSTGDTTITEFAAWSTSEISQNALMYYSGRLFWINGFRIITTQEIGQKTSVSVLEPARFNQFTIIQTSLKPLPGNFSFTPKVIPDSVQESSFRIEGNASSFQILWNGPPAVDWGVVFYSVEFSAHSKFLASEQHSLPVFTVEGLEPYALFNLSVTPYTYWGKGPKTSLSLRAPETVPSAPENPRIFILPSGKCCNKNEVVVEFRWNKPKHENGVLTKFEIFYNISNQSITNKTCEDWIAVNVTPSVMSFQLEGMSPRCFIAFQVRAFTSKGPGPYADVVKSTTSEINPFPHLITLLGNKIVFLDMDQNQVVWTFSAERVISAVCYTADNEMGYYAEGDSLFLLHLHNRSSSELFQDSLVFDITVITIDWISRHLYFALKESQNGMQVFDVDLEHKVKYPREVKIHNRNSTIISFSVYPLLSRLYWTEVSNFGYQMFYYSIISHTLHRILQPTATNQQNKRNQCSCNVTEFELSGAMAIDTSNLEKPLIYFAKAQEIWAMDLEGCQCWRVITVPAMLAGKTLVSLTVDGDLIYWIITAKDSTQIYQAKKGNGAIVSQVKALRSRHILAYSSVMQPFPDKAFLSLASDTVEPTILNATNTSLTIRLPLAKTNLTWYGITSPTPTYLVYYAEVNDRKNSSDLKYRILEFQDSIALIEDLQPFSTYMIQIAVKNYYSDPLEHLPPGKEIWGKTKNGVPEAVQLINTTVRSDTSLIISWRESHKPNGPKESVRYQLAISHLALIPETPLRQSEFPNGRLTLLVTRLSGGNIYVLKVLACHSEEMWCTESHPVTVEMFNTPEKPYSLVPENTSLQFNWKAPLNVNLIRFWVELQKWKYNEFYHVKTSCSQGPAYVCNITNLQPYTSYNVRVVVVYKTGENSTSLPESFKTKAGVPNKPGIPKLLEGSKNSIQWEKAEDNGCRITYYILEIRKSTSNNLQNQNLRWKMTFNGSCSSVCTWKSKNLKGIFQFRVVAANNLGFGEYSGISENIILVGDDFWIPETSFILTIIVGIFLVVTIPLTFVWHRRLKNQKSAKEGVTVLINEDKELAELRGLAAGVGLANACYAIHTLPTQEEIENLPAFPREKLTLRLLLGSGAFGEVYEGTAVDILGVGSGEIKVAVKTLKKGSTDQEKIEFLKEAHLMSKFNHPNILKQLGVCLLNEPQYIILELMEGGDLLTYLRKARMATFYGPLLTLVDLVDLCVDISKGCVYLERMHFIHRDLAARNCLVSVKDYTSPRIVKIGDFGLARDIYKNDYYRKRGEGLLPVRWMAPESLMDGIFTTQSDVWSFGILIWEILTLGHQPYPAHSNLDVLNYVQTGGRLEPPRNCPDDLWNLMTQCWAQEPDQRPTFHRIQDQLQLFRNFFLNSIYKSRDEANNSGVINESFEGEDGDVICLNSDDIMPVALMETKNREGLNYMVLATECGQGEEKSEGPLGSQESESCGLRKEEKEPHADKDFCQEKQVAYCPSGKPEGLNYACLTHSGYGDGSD

LYN = LYN (Homo sapiens, UniProt P07948); test: biochemical; conditions: read-out: % enzyme activity, 1 μM; Run 1, Run 2
Sequence of LYN (P07948 whole entry): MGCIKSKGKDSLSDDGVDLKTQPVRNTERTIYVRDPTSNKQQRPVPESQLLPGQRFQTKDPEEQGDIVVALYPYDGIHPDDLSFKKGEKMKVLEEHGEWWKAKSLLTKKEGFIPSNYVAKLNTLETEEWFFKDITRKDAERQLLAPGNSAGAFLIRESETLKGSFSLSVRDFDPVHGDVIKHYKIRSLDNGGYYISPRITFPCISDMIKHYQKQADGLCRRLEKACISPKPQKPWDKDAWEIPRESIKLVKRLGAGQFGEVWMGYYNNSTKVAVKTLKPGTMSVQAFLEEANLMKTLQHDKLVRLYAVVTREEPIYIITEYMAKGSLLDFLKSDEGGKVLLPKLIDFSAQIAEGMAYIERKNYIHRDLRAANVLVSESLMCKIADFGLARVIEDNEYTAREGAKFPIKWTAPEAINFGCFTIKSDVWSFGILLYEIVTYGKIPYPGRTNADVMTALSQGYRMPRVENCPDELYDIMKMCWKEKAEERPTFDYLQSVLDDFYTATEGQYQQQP

PKAcb = PKAcb (Homo sapiens, UniProt P22694); test: biochemical; conditions: read-out: % enzyme activity, 1 μM; Run 1, Run 2
DYRK2 = target: T4, DYRK2 (Homo sapiens, UniProt Q92630); test: biochemical; conditions: read-out: % enzyme activity, 1 μM; Run 1, Run 2
T4 sequence (Q92630 1-601): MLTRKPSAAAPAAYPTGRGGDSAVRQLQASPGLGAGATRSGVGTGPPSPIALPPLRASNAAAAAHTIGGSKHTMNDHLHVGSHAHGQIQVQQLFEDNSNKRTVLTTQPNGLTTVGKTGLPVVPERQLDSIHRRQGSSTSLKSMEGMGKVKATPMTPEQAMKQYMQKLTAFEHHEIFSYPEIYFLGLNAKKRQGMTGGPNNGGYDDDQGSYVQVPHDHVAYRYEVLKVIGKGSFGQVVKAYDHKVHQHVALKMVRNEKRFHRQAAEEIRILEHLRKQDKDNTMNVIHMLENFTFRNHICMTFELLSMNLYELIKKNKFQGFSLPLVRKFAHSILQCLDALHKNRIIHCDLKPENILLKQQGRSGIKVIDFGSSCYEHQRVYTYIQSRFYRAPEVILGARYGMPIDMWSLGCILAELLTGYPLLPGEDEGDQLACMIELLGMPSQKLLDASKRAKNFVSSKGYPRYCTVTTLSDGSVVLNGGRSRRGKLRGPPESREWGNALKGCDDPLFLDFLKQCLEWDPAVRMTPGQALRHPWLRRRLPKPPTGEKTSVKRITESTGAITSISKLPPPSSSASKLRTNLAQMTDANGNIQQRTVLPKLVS

| Structure (SMILES) | % enzyme activity (ITK) [%] | % enzyme activity (PAK4) [%] | remaining activity at 1 µM (PKN3/PRK3) [%] | IC50 (CYP2C9) [µM] | % enzyme activity (JAK1) [%] | remaining activity at 1 µM (PLK4/SAK) [%] | remaining activity at 1 µM (ROS/ROS1) [%] | remaining activity at 1 µM (LYN) [%] | remaining activity at 1 µM (PKAcb) [%] | remaining activity at 1 µM (DYRK2) [%] |
| --- | --- | --- | --- | --- | --- | --- | --- | --- | --- | --- |
| COc1cc(-c2cncc(-c3ccc(N4CCN(C)CC4)cc3)c2C)cc(F)c1C(N)=O [Compound 26a, 2-Fluoro-6-methoxy-4-(4-methyl-5-(4-(4-methylpiperazin-1-yl)phenyl)pyridin-3-yl)benzamide] | 103.48 | 98.21 | 95 | > 50 | 99.53 | 94.1 | 87.7 | 79.9 | 96.2 | 96.3 |
| COc1cc(-c2cncc(-c3ccc(N4C[C@@H](C)N(C)[C@@H](C)C4)cc3)c2C)cc(F)c1C(N)=O [Compound 26c, 2-Fluoro-6-methoxy-4-(4-methyl-5-(4-((3R,5S)-3,4,5-trimethylpiperazin-1-yl)phenyl)pyridin-3-yl)benzamide] | 100.51 | 98.82 | 98.4 | > 50 | 99.07 | 98.8 | 97.4 | 91 | 97.9 | 100 |
